# pIC50: −log10 of the molar value.
# Key:
# [1] = target: EGF-Receptor Kinase (EGFR) (Homo sapiens, UniProt P00533); test: Cell-free tyrosine kinase inhibition assay EGFR; type: biochemical
# BTK in B18.2 cells = BTK in B18.2 cells (Homo sapiens, UniProt Q06187); test: Cellular BTK activity, immune complex kinase assay after treatment of cells; type: cell-based; conditions: treatment of B18.2 cells
# Description: PIU: Phosphoimager units; DSU, densitometric scanning units; CON, control.
# Polyclonal antibodies to BTK were generated by immunization of rabbits with glutathione S-transferase (GST) fusion proteins (Pharmacia Biotech Inc.) containing the first 150 amino acids of BTK. The monoclonal anti-Fas antibody (F22120) was obtained from the Transduction Laboratories, Inc. (Lexington, Ky.). […] Following electrophoresis, kinase gels were dried onto Whatman 3M filter paper and subjected to phosphoimaging on a Molecular Imager (Bio-Rad, Hercules, Calif.) as well as autoradiography on film. Similarly, all chemiluminescent BTK Western blots were subjected to three dimesional densitometric scanning using the Molecular Imager and Imaging Densitometer using the Molecular Analyst/Macontosh version 2.1 software following the specifications of the manufacturer (Bio-Rad). For each drug concentration, a BTK kinase activity index was determined by comparing the ratios of the kinase activity in phosphorimager units (PIU) and density of the protein bands in densitometric scanning units (DSU) to those of the baseline sample and using the formula: Activity Index=[PIU of kinase band/DSU of BTK protein band]test sample: [PIU of kinase band/DSU of BTK protein band]baseline control sample. […]
# [2] = test system: OVA-sensitized and challenged mice; test: Airway responsiveness to methacholine in mouse model of allergic asthma; type: in vivo; conditions: ovalbumin sensitized and challenged, N = 5-6 mice
# Procedure: FIG. 28: Inhibition of airway hyperresponsiveness by LFM-A8 in mice. Mice were sensitized with ovalbumin (OVA) on days 0 and 14 intraperitoneally. On days 20, 21 and 23, mice were challenged for 15 min with 2% OVA via airways using a untrasonic nebulizer. After 24 h of the last OVA challenge airway responsiveness to increasing concentrations of methacholine was measured. To study the effect of LFM-A8 on airway hyperresponsiveness, mice were injected intraperitoneally with indicated concentrations of LFM-A8 or vehicle on day 20, 21, and 23 1 h prior and 2 h post OVA challenge and airway responsiveness to increasing concentrations of methacholine was measured. The data points represent the mean±SEM values (N=5-6 mice).
# Mouse Model of Allergic Asthma. BALB/c mice were injected intraperitoneally with 20 μg of ovalbumin (OVA) in alum on day 0, and 14. On days 21, 22 and 23 the mice were challenged for 15 min with 2% OVA via their airways by ultrasonic nebulization (Takeda, K., et al., (1997) J Exp Med, 186, 449-454). In order to study the effect of LFM-A8 on allergic asthma, mice were treated with LFM-A8 or vehicle 2 h prior to OVA challenge on day 21, 22 and 23. Mice were assessed for “airway responsiveness” on day 24, as previously reported (Takeda, K., et al., (1997) J Exp Med, 186, 449-454; Hamelmann, E., et al., (1997) Am J Respir Crit Care Med, 156, 766-775) and described below.
# Determination of Airway Responsiveness. Airway responsiveness was measured in unrestrained mice by noninvasive whole body plethysmography using a BUXCO BioSystem plethysmography instrument (BUXCO, Trou, N.Y.) (Hamelmann, E., et al., (1997) Am J Respir Crit Care Med, 156, 766-775). The chamber pressure was measured with a transducer connected to a preamplifier module and analyzed by system XA software) (Hamelmann, E., et al., (1997) Am J Respir Crit Care Med, 156, 766-775). The chamber pressure was used as a measure of the difference between thoracic volume expansion or contraction and air volume removed or added to the chamber during breathing. The differential of this function with respect to time produced a pseudo-flow value that is proportionate to the difference between the rate of the thoracic volume expansion and nasal air flow. The pulmonary airflow obstruction assessed by measuring “Enhanced Pause (Penh)” using the following formula according to the manufacturer's recommendations: Penh=PEP/PIP×Pause. […] In order to measure the methacholine responses, mice were placed in the chamber and baseline readings were taken and averaged for 3 min. Mice were nebulized with saline or methacholine at increasing doses (1-100 mg/ml) for 3 min and the Penh readings were taken and averaged for 3 min after each nebulization. […]
# Sequence of EGF-Receptor Kinase (EGFR) (P00533 25-1210, species assumed): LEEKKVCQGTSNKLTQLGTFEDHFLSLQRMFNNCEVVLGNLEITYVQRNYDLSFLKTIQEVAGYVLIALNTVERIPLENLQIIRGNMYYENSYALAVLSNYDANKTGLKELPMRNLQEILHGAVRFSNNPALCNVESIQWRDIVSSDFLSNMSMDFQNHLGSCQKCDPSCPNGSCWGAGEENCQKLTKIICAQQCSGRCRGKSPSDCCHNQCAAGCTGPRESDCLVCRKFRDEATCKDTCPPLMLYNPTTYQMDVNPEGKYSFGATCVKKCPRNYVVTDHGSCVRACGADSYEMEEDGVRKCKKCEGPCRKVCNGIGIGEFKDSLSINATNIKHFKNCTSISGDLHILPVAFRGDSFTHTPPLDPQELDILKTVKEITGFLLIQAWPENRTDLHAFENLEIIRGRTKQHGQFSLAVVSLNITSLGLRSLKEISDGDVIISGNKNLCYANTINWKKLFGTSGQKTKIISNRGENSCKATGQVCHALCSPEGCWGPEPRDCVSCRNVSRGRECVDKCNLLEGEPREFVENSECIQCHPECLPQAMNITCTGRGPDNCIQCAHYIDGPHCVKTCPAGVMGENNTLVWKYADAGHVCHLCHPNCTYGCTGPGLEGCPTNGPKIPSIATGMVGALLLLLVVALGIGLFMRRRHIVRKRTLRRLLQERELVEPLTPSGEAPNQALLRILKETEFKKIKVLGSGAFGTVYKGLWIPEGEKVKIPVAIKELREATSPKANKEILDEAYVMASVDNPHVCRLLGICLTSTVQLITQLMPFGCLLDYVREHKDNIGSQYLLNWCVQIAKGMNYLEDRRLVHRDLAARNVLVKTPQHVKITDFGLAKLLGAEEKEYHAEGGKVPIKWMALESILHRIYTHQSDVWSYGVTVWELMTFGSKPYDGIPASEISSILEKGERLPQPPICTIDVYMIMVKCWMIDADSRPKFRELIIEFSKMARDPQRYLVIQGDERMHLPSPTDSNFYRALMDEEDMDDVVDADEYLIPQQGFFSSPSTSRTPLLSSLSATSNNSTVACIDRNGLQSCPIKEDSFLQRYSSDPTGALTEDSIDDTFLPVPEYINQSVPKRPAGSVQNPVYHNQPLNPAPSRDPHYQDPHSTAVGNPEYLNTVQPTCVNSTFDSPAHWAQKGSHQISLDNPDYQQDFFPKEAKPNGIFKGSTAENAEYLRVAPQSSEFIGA
# Sequence of BTK in B18.2 cells (Q06187 whole entry): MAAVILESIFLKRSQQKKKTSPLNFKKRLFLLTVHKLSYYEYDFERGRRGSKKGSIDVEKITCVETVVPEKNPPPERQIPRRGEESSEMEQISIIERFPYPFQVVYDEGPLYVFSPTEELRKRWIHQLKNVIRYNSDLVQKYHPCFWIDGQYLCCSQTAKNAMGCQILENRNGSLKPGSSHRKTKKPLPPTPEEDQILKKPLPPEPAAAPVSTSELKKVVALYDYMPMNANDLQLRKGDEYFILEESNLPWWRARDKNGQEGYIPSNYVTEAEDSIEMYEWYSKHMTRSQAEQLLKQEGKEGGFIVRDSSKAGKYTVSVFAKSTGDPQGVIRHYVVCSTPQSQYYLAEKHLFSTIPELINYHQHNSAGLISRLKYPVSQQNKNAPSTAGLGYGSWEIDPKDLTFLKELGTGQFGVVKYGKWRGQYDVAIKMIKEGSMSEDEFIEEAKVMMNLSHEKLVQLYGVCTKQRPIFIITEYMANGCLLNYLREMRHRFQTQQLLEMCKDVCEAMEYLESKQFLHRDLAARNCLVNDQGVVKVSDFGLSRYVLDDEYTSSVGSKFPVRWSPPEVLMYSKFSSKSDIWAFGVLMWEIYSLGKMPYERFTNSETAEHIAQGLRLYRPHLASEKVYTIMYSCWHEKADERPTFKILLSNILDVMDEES
compound,measurement,setting,value
"C/C(O)=C(\C#N)C(=O)Nc1cc(Br)ccc1Br [LFM-A13, α-Cyano-β-hydroxy-β-methyl-N-(2,5-dibromophenyl)-propenamide]",pIC50,[1]; EGFR,< 3.56
same,effect on enzymatic activity of EGFR,[1]; concentrations as high as 100 μg/ml (~278 μM),did not affect the enzymatic activity
same,cellular BTK activity,BTK in B18.2 cells,dose-dependent inhibition of cellular BTK activity
"CC(O)=C(C#N)C(=O)Nc1cccc(C(F)(F)F)c1 [LFM-A8, α-Cyano-β-hydroxy-β-methyl-N-[3-(trifluoromethyl)phenyl]-propenamide]",melting point,,182 to 184 °C
same,Requirement of Methacholine for an Increase in Penh of 100%,[2]; 15 mg/Kg intraperitoneally,36.8 mg/mL
same,Requirement of Methacholine for an Increase in Penh of 200%,[2]; 15 mg/Kg intraperitoneally,82 mg/mL
same,Requirement of Methacholine for an Increase in Penh of 100%,[2]; 50 mg/Kg intraperitoneally,67.5 mg/mL
same,Requirement of Methacholine for an Increase in Penh of 200%,[2]; 50 mg/Kg intraperitoneally,129 mg/mL

# Source: patent US6753348B2, “BTK inhibitors and methods for their identification and use” (Parker Hughes Institute, priority 1998, dated 2004)
